What all share (format): biochemical
The target of one assay is T1, recombinant PRL-2 (Homo sapiens, UniProt Q12974).
T1 construct: 6xHis (N, cleaved yes); made in house; host or cells: E. coli One Shot BL21 Star
T1 sequence (Q12974 1-167): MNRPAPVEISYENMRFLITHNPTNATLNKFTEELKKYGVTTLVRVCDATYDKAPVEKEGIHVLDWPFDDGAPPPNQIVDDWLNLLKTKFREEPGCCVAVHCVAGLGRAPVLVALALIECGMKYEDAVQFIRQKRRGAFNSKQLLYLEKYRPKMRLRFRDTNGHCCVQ
Kind of assay: In vitro phosphatase assay (DiFMUP hydrolysis), PRL-2.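 Also: PRL-2 activity read as DiFMUP hydrolysis after 20 min at room temperature with drug, enzyme first pre-reduced at 4 °C for 20 min.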

A further assay concerns the target T2, recombinant PRL-1 (Homo sapiens, UniProt Q93096).
T2 construct: 6xHis (N, cleaved yes); made in house; host or cells: E. coli One Shot BL21 Star
T2 sequence (Q93096 1-173): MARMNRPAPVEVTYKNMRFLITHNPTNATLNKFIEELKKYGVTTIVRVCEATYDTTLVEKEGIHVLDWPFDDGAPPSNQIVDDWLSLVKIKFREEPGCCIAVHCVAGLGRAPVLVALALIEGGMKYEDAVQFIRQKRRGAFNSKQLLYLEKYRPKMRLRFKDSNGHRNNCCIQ
Kind of assay: In vitro phosphatase assay (DiFMUP hydrolysis), PRL-1. Also: test concentration or dose not given here.

The target of a further assay is T3, recombinant PRL-3 (Homo sapiens, UniProt O75365).
T3 construct: 6xHis (N, cleaved yes); made in house; host or cells: E. coli One Shot BL21 Star
Briefly: In vitro phosphatase assay (DiFMUP hydrolysis), PRL-3. Also: test concentration or dose not given here.

[1] abbreviates: FDA-approved drug screen, compared to DMSO.

Like-named read-outs stand apart in the source and are kept apart here.

T3 sequence (O75365 whole entry): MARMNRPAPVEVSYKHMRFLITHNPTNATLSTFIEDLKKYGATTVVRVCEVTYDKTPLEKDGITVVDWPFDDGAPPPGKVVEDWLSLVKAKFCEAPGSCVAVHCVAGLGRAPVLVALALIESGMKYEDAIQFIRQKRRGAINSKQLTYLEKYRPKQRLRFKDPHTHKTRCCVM

For the compound `COc1cc([C@@H]2c3cc4c(cc3[C@@H](O[C@@H]3O[C@@H]5CO[C@@H](C)O[C@H]5[C@H](O)[C@H]3O)[C@H]3COC(=O)[C@H]23)OCO4)cc(OC)c1O` [Etoposide], at recombinant PRL-2 (setting [1]), the “% Phosphatase Activity (compared to DMSO) PRL-2” value stood at 98%. Further, the “% Phosphatase Activity (compared to DMSO) PRL-1” value on recombinant PRL-1 (setting [1]) is reported as 90%. Further, the “% Phosphatase Activity (compared to DMSO) PRL-3” value at recombinant PRL-3 (setting [1]) was determined as 70%.
For `Cc1ccc(-c2ncc(Cl)cc2-c2ccc(S(C)(=O)=O)cc2)cn1` [Etoricoxib] the same measures were 102%, 93% and 91%.
For `Cc1cc(C#N)cc(C)c1Oc1nc(Nc2ccc(C#N)cc2)nc(N)c1Br` [Etravirine (TMC125)] the same measures were 133%, 112% and 94%.
The matching figures for `Cc1cc(C)c2c(c1)[C@@H](N(Cc1cc(C(F)(F)F)cc(C(F)(F)F)c1)c1nnn(C)n1)CCCN2C[C@H]1CC[C@H](C(=O)O)CC1` [Evacetrapib (LY2484595)]: 86%, 84% and 84%.
With `CO[C@H]1C[C@@H]2CC[C@@H](C)[C@@](O)(O2)C(=O)C(=O)N2CCCC[C@H]2C(=O)O[C@H]([C@H](C)C[C@@H]2CC[C@@H](OCCO)[C@H](OC)C2)CC(=O)[C@H](C)/C=C(\C)[C@@H](O)[C@@H](OC)C(=O)[C@H](C)C[C@H](C)/C=C/C=C/C=C/1C` [Everolimus (RAD001)], on recombinant PRL-2 (setting [1]), the “% Phosphatase Activity (compared to DMSO) PRL-2” value is 86%. In addition, at recombinant PRL-1 (setting [1]), the “% Phosphatase Activity (compared to DMSO) PRL-1” value is on record as 86%. Also, the “% Phosphatase Activity (compared to DMSO) PRL-3” value at recombinant PRL-3 (setting [1]) amounted to 76%.
Turning to `C=C1C[C@@H]2[C@H](CC[C@]3(C)C(=O)CC[C@@H]23)[C@@]2(C)C=CC(=O)C=C12` [Exemestane], the “% Phosphatase Activity (compared to DMSO) PRL-2” value at recombinant PRL-2 (setting [1]) is recorded as 116%. Further, the “% Phosphatase Activity (compared to DMSO) PRL-1” value at recombinant PRL-1 (setting [1]) amounted to 95%. The “% Phosphatase Activity (compared to DMSO) PRL-3” value at recombinant PRL-3 (setting [1]) was 87%.
For `O=C1[C@H](CC[C@H](O)c2ccc(F)cc2)[C@@H](c2ccc(O)cc2)N1c1ccc(F)cc1` [Ezetimibe] the same measures were 82%, 100% and 80%.
The matching figures for `Cc1nc(C(=O)NCC(=O)O)c(O)c2ccc(Oc3ccccc3)cc12` [FG-4592]: 139%, 136% and 95%.
For `O=c1[nH]c(=O)n(C2CCCO2)cc1F` (stereo not drawn) [FT-207 (NSC 148958)] the same measures were 95%, 115% and 73%.
For the compound `CC(=O)OCC(CCn1cnc2cnc(N)nc21)COC(C)=O` [Famciclovir], the “% Phosphatase Activity (compared to DMSO) PRL-2” value on recombinant PRL-2 (setting [1]) is reported as 115%. On recombinant PRL-1 (setting [1]), the “% Phosphatase Activity (compared to DMSO) PRL-1” value worked out at 107%. Besides, at recombinant PRL-3 (setting [1]), the “% Phosphatase Activity (compared to DMSO) PRL-3” value was 79%.
For `NC(N)=Nc1nc(CSCCC(N)=NS(N)(=O)=O)cs1` [Famotidine], on recombinant PRL-2, the “% Phosphatase Activity (compared to DMSO) PRL-2” value is listed as 115%. The “% Phosphatase Activity (compared to DMSO) PRL-1” value on recombinant PRL-1 was 110%. The “% Phosphatase Activity (compared to DMSO) PRL-3” value at recombinant PRL-3 is given as 86%.
For the compound `Cl.O=S(=O)(c1cccc2cnccc12)N1CCCNCC1` [Fasudil (HA-1077) HCl], the “% Phosphatase Activity (compared to DMSO) PRL-2” value on recombinant PRL-2 (setting [1]) is reported as 95%. The “% Phosphatase Activity (compared to DMSO) PRL-1” value on recombinant PRL-1 (setting [1]) is 102%. Further, the “% Phosphatase Activity (compared to DMSO) PRL-3” value at recombinant PRL-3 (setting [1]) came to 82%.
With `Cc1nc(-c2ccc(OCC(C)C)c(C#N)c2)sc1C(=O)O` [Febuxostat], the “% Phosphatase Activity (compared to DMSO) PRL-2” value at recombinant PRL-2 (setting [1]) is 85%. Moreover, on recombinant PRL-1 (setting [1]), the “% Phosphatase Activity (compared to DMSO) PRL-1” value came to 95%. The “% Phosphatase Activity (compared to DMSO) PRL-3” value at recombinant PRL-3 (setting [1]) is listed as 89%.
As for `NC(=O)OCC(COC(N)=O)c1ccccc1` [Felbamate], the “% Phosphatase Activity (compared to DMSO) PRL-2” value on recombinant PRL-2 (setting [1]) turned out to be 97%. Also, on recombinant PRL-1 (setting [1]), the “% Phosphatase Activity (compared to DMSO) PRL-1” value is 103%. In addition, at recombinant PRL-3 (setting [1]), the “% Phosphatase Activity (compared to DMSO) PRL-3” value came to 71%.
The matching figures for `CCOC(=O)C1=C(C)NC(C)=C(C(=O)OC)C1c1cccc(Cl)c1Cl` (stereo not drawn) [Felodipine]: 227%, 161% and 132%.
As for `O=C(O)CCC(=O)c1ccc(-c2ccccc2)cc1` [Fenbufen], on recombinant PRL-2 (setting [1]), the “% Phosphatase Activity (compared to DMSO) PRL-2” value came to 103%. The “% Phosphatase Activity (compared to DMSO) PRL-1” value on recombinant PRL-1 (setting [1]) stood at 98%. Besides, the “% Phosphatase Activity (compared to DMSO) PRL-3” value at recombinant PRL-3 (setting [1]) turned out to be 90%.
